Experimental data taken from ChEMBL document CHEMBL4507329, “Data for DCP probe BTZO-1” (2021).

What was measured:
[1] = target: Mitogen-activated protein kinase kinase kinase 12 (Homo sapiens) (UniProt Q12852); details: Compound concentration 1000.0 nM
[2] = target: Serine/threonine-protein kinase PAK 3 (Homo sapiens) (UniProt O75914); details: Compound concentration 1000.0 nM
[3] = target: Homeodomain-interacting protein kinase 3 (Homo sapiens) (UniProt Q9H422); details: Compound concentration 1000.0 nM
[4] = target: Cyclin-dependent kinase 16 (Homo sapiens) (UniProt Q00536); details: Compound concentration 1000.0 nM
[5] = tested on: Tyrosine-protein kinase ABL1 (Homo sapiens), P00519 [F317L]; details: Compound concentration 1000.0 nM
[6] = target: Myosin light chain kinase (Homo sapiens) (UniProt Q32MK0); details: Compound concentration 1000.0 nM
Chain of Myosin light chain kinase (Homo sapiens) (Q32MK0 whole entry): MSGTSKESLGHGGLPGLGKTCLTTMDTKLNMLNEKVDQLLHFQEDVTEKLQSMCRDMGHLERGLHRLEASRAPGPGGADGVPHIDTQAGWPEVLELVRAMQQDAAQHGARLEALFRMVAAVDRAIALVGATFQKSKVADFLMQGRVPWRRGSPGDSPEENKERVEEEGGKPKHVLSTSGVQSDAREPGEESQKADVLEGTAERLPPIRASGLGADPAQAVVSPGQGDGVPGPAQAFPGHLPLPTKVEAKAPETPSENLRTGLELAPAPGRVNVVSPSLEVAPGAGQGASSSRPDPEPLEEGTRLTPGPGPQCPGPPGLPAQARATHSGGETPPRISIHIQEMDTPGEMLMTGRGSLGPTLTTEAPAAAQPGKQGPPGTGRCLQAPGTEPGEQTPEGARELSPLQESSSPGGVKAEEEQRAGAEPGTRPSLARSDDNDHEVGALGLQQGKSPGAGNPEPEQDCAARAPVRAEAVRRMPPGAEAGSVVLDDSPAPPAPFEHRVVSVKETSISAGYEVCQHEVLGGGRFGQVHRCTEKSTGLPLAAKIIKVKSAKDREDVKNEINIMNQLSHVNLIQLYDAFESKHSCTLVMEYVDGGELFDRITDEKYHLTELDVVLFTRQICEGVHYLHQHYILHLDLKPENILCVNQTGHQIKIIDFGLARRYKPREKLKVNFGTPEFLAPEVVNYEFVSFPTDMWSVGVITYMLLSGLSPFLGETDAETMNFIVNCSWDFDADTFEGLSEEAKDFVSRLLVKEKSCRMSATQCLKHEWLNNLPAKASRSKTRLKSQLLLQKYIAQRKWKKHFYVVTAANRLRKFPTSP

[7] = target: Angiopoietin-1 receptor (Homo sapiens) (UniProt Q02763); details: Compound concentration 1000.0 nM
[8] = target: 1-phosphatidylinositol 3-phosphate 5-kinase (Homo sapiens) (UniProt Q9Y2I7); details: Compound concentration 1000.0 nM
Chain of 1-phosphatidylinositol 3-phosphate 5-kinase (Homo sapiens) (Q9Y2I7 whole entry): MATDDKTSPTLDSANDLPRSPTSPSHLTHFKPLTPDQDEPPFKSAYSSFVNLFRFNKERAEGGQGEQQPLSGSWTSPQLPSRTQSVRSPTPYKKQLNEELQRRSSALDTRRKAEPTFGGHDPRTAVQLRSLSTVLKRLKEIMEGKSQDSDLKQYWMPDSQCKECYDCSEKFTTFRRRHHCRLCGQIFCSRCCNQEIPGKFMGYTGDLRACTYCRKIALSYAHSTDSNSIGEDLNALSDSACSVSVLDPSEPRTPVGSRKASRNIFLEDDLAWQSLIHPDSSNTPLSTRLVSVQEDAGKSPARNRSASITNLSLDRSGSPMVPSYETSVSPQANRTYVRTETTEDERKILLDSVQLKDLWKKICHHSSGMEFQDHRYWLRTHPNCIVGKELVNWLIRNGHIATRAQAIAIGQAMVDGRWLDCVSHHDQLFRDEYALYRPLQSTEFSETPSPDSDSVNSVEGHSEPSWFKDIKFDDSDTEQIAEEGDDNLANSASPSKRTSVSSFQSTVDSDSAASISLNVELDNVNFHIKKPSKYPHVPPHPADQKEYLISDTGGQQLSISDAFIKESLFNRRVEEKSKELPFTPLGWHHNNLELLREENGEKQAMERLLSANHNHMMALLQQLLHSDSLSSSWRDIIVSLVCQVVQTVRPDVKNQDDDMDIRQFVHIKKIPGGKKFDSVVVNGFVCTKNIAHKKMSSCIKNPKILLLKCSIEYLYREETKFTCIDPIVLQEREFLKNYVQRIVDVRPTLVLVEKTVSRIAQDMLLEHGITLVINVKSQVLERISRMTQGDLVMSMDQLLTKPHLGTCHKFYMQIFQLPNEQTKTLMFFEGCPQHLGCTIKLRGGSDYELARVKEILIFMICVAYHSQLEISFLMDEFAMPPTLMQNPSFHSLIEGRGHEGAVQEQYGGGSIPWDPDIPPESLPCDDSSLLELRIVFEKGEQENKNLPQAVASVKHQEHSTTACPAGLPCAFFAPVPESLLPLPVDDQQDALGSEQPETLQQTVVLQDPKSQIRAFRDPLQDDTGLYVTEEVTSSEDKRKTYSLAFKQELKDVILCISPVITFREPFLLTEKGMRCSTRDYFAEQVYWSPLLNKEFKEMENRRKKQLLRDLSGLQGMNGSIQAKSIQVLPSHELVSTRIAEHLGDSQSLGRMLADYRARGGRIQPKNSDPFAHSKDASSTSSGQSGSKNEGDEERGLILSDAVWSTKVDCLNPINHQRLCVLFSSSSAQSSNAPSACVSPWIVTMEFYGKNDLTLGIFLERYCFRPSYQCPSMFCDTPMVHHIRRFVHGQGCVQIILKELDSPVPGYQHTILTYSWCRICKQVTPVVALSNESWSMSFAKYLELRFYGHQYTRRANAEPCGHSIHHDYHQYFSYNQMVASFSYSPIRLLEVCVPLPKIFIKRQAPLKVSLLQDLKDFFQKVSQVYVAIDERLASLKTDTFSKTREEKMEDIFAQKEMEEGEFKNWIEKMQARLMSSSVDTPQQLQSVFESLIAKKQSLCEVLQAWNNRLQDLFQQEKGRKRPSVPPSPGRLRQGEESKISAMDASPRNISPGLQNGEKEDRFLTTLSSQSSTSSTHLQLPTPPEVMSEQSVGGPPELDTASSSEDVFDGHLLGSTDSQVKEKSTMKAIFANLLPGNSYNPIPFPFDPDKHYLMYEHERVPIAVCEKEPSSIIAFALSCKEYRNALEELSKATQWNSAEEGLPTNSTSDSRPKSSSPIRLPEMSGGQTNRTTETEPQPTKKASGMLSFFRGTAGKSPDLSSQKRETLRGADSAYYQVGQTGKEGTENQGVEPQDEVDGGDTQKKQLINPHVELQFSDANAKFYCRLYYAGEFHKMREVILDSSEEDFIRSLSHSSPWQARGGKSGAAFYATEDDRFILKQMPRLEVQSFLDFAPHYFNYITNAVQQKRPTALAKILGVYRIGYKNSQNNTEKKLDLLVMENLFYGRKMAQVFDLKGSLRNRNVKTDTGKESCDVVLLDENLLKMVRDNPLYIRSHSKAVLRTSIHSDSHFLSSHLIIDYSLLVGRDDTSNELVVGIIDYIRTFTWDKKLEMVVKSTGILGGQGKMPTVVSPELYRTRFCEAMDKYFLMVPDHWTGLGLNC

[9] = target: MAP kinase-interacting serine/threonine-protein kinase 1 (Homo sapiens) (UniProt Q9BUB5); details: Compound concentration 1000.0 nM
[10] = tested on: Epidermal growth factor receptor (Homo sapiens), P00533 [UNDEFINED MUTATION]; details: Compound concentration 1000.0 nM
[11] = target: 5-hydroxytryptamine receptor 1E (Homo sapiens) (UniProt P28566); details: Compound concentration 10.0 uM
[12] = target: Serine/threonine-protein kinase Nek1 (Homo sapiens) (UniProt Q96PY6); details: Compound concentration 1000.0 nM
[13] = tested on: Receptor-type tyrosine-protein kinase FLT3 (Homo sapiens), P36888 [R834Q]; details: Compound concentration 1000.0 nM
[14] = target: Calcium/calmodulin-dependent protein kinase type 1B (Homo sapiens) (UniProt Q6P2M8); details: Compound concentration 1000.0 nM
[15] = target: Serine/threonine-protein kinase 36 (Homo sapiens) (UniProt Q9NRP7); details: Compound concentration 1000.0 nM
[16] = target: Cyclin-dependent kinase-like 5 (Homo sapiens) (UniProt O76039); details: Compound concentration 1000.0 nM
[17] = target: Interferon-induced, double-stranded RNA-activated protein kinase (Homo sapiens) (UniProt P19525); details: Compound concentration 1000.0 nM
[18] = target: Serine/threonine-protein kinase TAO2 (Homo sapiens) (UniProt Q9UL54); details: Compound concentration 1000.0 nM
[19] = target: Inhibitor of nuclear factor kappa-B kinase subunit epsilon (Homo sapiens) (UniProt Q14164); details: Compound concentration 1000.0 nM
Chain of Inhibitor of nuclear factor kappa-B kinase subunit epsilon (Homo sapiens) (Q14164 whole entry): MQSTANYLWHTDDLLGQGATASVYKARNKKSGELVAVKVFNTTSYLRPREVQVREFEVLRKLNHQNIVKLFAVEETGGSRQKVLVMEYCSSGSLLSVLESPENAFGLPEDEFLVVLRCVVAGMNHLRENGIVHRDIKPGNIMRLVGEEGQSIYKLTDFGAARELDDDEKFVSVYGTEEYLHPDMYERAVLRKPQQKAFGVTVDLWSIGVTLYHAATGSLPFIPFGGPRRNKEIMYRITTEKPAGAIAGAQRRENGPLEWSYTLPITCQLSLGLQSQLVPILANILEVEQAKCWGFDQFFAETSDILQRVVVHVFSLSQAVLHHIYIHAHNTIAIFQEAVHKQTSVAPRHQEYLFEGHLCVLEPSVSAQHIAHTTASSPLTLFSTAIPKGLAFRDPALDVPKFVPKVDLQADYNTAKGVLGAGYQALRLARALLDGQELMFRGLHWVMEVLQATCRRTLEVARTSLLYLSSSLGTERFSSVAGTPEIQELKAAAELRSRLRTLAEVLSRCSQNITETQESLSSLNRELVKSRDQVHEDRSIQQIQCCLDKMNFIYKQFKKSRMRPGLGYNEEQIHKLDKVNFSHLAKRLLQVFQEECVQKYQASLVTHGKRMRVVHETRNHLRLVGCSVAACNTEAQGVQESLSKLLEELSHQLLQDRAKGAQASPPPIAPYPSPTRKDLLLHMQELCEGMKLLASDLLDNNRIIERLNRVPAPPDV

[20] = target: Cytoplasmic tyrosine-protein kinase BMX (Homo sapiens) (UniProt P51813); details: Compound concentration 1000.0 nM
[21] = target: Ephrin type-A receptor 2 (Homo sapiens) (UniProt P29317); details: Compound concentration 1000.0 nM
[22] = target: Cyclin-dependent kinase 7 (Homo sapiens) (UniProt P50613); details: Compound concentration 1000.0 nM
[23] = target: NT-3 growth factor receptor (Homo sapiens) (UniProt Q16288); details: Compound concentration 1000.0 nM
Chain of NT-3 growth factor receptor (Homo sapiens) (Q16288 32-839 limits assumed): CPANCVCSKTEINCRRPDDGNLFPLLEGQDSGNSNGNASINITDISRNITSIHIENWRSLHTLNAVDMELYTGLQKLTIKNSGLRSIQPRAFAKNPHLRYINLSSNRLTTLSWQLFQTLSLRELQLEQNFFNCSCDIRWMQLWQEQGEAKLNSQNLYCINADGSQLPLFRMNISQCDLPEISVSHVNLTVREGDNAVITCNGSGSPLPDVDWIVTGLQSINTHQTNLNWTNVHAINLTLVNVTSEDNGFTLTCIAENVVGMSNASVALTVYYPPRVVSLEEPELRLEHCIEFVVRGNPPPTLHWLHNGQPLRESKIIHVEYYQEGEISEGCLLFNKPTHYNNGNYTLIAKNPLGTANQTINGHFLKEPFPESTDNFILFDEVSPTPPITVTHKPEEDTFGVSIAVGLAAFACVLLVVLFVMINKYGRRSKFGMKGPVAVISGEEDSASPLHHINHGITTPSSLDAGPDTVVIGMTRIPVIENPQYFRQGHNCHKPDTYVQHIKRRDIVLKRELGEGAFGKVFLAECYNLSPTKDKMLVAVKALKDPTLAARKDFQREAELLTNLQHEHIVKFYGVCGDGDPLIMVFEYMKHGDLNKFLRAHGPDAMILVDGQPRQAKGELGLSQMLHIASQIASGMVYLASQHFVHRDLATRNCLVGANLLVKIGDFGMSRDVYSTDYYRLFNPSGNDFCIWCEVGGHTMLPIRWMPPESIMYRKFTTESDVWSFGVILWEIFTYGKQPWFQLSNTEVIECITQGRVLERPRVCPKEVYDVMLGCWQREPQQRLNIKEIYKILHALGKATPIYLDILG

[24] = target: Tyrosine-protein kinase Lck (Homo sapiens) (UniProt P06239); details: Compound concentration 1000.0 nM
[25] = tested on: Tyrosine-protein kinase ABL1 (Homo sapiens), P00519 [F317I]; details: Compound concentration 1000.0 nM
[26] = tested on: Epidermal growth factor receptor (Homo sapiens), P00533 [G719C]; details: Compound concentration 1000.0 nM
[27] = target: Ankyrin repeat and protein kinase domain-containing protein 1 (Homo sapiens) (UniProt Q8NFD2); details: Compound concentration 1000.0 nM
[28] = target: Serine/threonine-protein kinase WNK3 (Homo sapiens) (UniProt Q9BYP7); details: Compound concentration 1000.0 nM
[29] = target: Cyclin-dependent kinase 9 (Homo sapiens) (UniProt P50750); details: Compound concentration 1000.0 nM
[30] = target: Tyrosine-protein kinase Srms (Homo sapiens) (UniProt Q9H3Y6); details: Compound concentration 1000.0 nM
[31] = tested on: Tyrosine-protein kinase ABL1 (Homo sapiens), P00519 [Y253F]; details: Compound concentration 1000.0 nM
[32] = target: Rhodopsin kinase GRK7 (Homo sapiens) (UniProt Q8WTQ7); details: Compound concentration 1000.0 nM
Chain of Rhodopsin kinase GRK7 (Homo sapiens) (Q8WTQ7 whole entry): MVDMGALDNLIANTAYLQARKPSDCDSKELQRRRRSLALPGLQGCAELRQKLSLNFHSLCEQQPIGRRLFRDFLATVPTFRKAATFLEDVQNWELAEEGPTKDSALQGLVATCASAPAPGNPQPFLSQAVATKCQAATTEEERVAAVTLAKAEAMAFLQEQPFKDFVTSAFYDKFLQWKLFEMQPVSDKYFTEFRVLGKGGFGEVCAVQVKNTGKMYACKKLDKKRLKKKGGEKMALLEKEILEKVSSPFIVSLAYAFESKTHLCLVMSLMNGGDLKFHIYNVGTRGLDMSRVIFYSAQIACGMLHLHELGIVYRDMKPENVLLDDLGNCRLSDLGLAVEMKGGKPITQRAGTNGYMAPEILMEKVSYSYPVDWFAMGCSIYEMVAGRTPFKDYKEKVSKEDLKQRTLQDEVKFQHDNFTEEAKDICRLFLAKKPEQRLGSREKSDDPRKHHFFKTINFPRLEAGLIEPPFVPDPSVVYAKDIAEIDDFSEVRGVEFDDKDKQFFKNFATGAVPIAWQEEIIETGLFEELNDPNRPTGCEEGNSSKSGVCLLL

[33] = target: Histamine H4 receptor (Homo sapiens) (UniProt Q9H3N8); details: Compound concentration 10.0 uM
[34] = target: Serine/threonine-protein kinase WNK2 (Homo sapiens) (UniProt Q9Y3S1); details: Compound concentration 1000.0 nM
[35] = target: Glycogen synthase kinase-3 beta (Homo sapiens) (UniProt P49841); details: Compound concentration 1000.0 nM
[36] = target: Ephrin type-B receptor 1 (Homo sapiens) (UniProt P54762); details: Compound concentration 1000.0 nM
[37] = tested on: Hepatocyte growth factor receptor (Homo sapiens), P08581 [M1250T]; details: Compound concentration 1000.0 nM
[38] = target: Serine/threonine-protein kinase 10 (Homo sapiens) (UniProt O94804); details: Compound concentration 1000.0 nM
[39] = target: Serine/threonine-protein kinase haspin (Homo sapiens) (UniProt Q8TF76); details: Compound concentration 1000.0 nM
[40] = target: MAP kinase-activated protein kinase 5 (Homo sapiens) (UniProt Q8IW41); details: Compound concentration 1000.0 nM
[41] = tested on: Mast/stem cell growth factor receptor Kit (Homo sapiens), P10721 [D816H]; details: Compound concentration 1000.0 nM
[42] = target: Testis-specific serine/threonine-protein kinase 3 (Homo sapiens) (UniProt Q96PN8); details: Compound concentration 1000.0 nM
[43] = target: Calcium/calmodulin-dependent protein kinase type 1D (Homo sapiens) (UniProt Q8IU85); details: Compound concentration 1000.0 nM
[44] = target: Tyrosine-protein kinase ITK/TSK (Homo sapiens) (UniProt Q08881); details: Compound concentration 1000.0 nM
[45] = target: 5-hydroxytryptamine receptor 1B (Homo sapiens) (UniProt P28222); details: Compound concentration 10.0 uM

O=c1nc(-c2ccccn2)sc2ccccc12 [BTZO-1]
inactive: residual activity [1] 100% | residual activity [2] 84% | residual activity [3] 92% | residual activity [4] 100% | residual activity [5] 100% | residual activity [6] 100% | residual activity [7] 99% | residual activity [8] 100% | residual activity [9] 89% | residual activity [10] 100% | inhibition [11] -1.13% | residual activity [12] 100% | residual activity [13] 100% | residual activity [14] 56% | residual activity [15] 82% | residual activity [16] 100% | residual activity [17] 100% | residual activity [18] 73% | residual activity [19] 100% | residual activity [20] 98% | residual activity [21] 100% | residual activity [22] 69% | residual activity [23] 72% | residual activity [24] 95% | residual activity [25] 100% | residual activity [26] 77% | residual activity [27] 100% | residual activity [28] 100% | residual activity [29] 95% | residual activity [30] 87% | residual activity [31] 83% | residual activity [32] 89% | inhibition [33] -0.975% | residual activity [34] 100% | residual activity [35] 74% | residual activity [36] 88% | residual activity [37] 98% | residual activity [38] 99% | residual activity [39] 100% | residual activity [40] 92% | residual activity [41] 92% | residual activity [42] 86% | residual activity [43] 90% | residual activity [44] 82% | inhibition [45] -1.9%

O=C1NC(c2ccccn2)Sc2ccccc21 (stereo not given) [BTZO-4]
inactive: residual activity [1] 100% | residual activity [2] 83% | residual activity [3] 86% | residual activity [4] 100% | residual activity [5] 100% | residual activity [6] 100% | residual activity [7] 100% | residual activity [8] 100% | residual activity [9] 82% | residual activity [10] 100% | inhibition [11] -0.383% | residual activity [12] 100% | residual activity [13] 81% | residual activity [14] 71% | residual activity [15] 79% | residual activity [16] 100% | residual activity [17] 91% | residual activity [18] 71% | residual activity [19] 94% | residual activity [20] 100% | residual activity [21] 100% | residual activity [22] 77% | residual activity [23] 81% | residual activity [24] 80% | residual activity [25] 90% | residual activity [26] 87% | residual activity [27] 77% | residual activity [28] 100% | residual activity [29] 100% | residual activity [30] 84% | residual activity [31] 69% | residual activity [32] 86% | inhibition [33] 1.89% | residual activity [34] 100% | residual activity [35] 65% | residual activity [36] 90% | residual activity [37] 72% | residual activity [38] 100% | residual activity [39] 100% | residual activity [40] 73% | residual activity [41] 79% | residual activity [42] 88% | residual activity [43] 82% | residual activity [44] 77% | inhibition [45] 12.3%
